Experimental data published in ChEMBL document CHEMBL1201862, “PubChem BioAssay data set” (2004).
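48-hour exposure; five concentrations; linearly interpolated endpoints. At the GI50, growth is halved.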 Calls of active or inactive are those of the source. No stated cut-off is given here; in the data, active = GI50 up to about 1.1 µM and inactive = higher.

Key:
Assay in all cases: DTP human tumour cell line panel, 48 h
[1] = system: OVCAR-4
[2] = system: SF-539
[3] = system: MDA-MB-435
[4] = system: HCC 2998
[5] = system: UO-31
[6] = system: SR
[7] = system: SNB-75
[8] = system: HL-60
[9] = system: NCI/ADR-RES
[10] = system: LOX IMVI
[11] = system: UACC-257
[12] = system: SNB-19
[13] = system: MDA-N
[14] = system: NCI-H226
[15] = system: MDA-MB-231
[16] = system: K562
[17] = system: CAKI-1
[18] = system: NCI-H23
[19] = system: OVCAR-5
[20] = system: SF-268

SMILES	GI50 [1]	GI50 [2]	GI50 [3]	GI50 [4]	GI50 [5]	GI50 [6]	GI50 [7]	GI50 [8]	GI50 [9]	GI50 [10]	GI50 [11]	GI50 [12]	GI50 [13]	GI50 [14]	GI50 [15]	GI50 [16]	GI50 [17]	GI50 [18]	GI50 [19]	GI50 [20]
CN(CCNC(=O)c1c[nH]c2c1ccc1ccccc12)CCNC(=O)c1c[nH]c2c1ccc1ccccc12	3.54 µM (inactive)	1.15 µM (inactive)	1.84 µM (inactive)	1.41 µM (inactive)	1.38 µM (inactive)	2.08 µM (inactive)	1.52 µM (inactive)	1.95 µM (inactive)	4.81 µM (inactive)	1.64 µM (inactive)	1.79 µM (inactive)	2.23 µM (inactive)	2.31 µM (inactive)	18.1 µM (inactive)	1.59 µM (inactive)	2.18 µM (inactive)	2.56 µM (inactive)	4.39 µM (inactive)	4.74 µM (inactive)	3.1 µM (inactive)
CCOC(=O)CCC(NC(=O)c1ccc(Nc2cnc3ccc(C(F)(F)F)cc3n2)cc1)C(=O)OCC (stereo not given)	8.2 µM (inactive)	13.3 µM (inactive)	> 80.9 µM (inactive)	81.1 µM (inactive)	45.5 µM (inactive)	> 100 µM (inactive)	8.24 µM (inactive)	> 100 µM (inactive)	11 µM (inactive)	36.7 µM (inactive)	> 74.3 µM (inactive)	13 µM (inactive)	> 100 µM (inactive)	28.1 µM (inactive)	4.59 µM (inactive)	> 100 µM (inactive)	12 µM (inactive)	35 µM (inactive)	> 100 µM (inactive)	15 µM (inactive)
C[C@H]1CC(=O)[C@@]2(O)C#C/C=C\C#C[C@@H]3Nc4c(cc(O)c5c4C(=O)c4ccccc4C5=O)[C@]24O[C@]314	0.271 µM (active)	0.00316 µM (active)	0.0509 µM (active)	0.00647 µM (active)	< 0.001 µM (active)	0.00256 µM (active)	0.0316 µM (active)	< 0.001 µM (active)	0.00914 µM (active)	0.0175 µM (active)	0.00231 µM (active)	0.0199 µM (active)	0.0309 µM (active)	0.00356 µM (active)	0.0873 µM (active)	0.0118 µM (active)	< 0.001 µM (active)	0.00461 µM (active)	0.0685 µM (active)	0.00313 µM (active)
Cc1nn(-c2ccccc2)c(C)c1/C=N/NC(=O)c1sc(=S)n(-c2ccc(Cl)cc2)c1N	3.94 µM (inactive)	3.64 µM (inactive)	9.64 µM (inactive)	18.8 µM (inactive)	4.33 µM (inactive)	3.73 µM (inactive)	1.48 µM (inactive)	8.17 µM (inactive)	6.21 µM (inactive)	3.27 µM (inactive)	14.4 µM (inactive)	> 100 µM (inactive)	11.5 µM (inactive)	34.5 µM (inactive)	5.02 µM (inactive)	3.52 µM (inactive)	2.76 µM (inactive)	18.9 µM (inactive)	6.44 µM (inactive)	9.57 µM (inactive)
C=CC1(C)CCC2C(=CCC3C2(C)CC(O)C(O)C3(C)COC2OC(CO)C(O)C(O)C2O)C1 (stereo not given)	> 100 µM (inactive)	> 100 µM (inactive)	> 100 µM (inactive)	> 100 µM (inactive)	> 100 µM (inactive)	41.4 µM (inactive)	> 100 µM (inactive)	57.9 µM (inactive)	> 100 µM (inactive)	> 100 µM (inactive)	> 100 µM (inactive)	44.8 µM (inactive)	> 100 µM (inactive)	> 100 µM (inactive)	> 100 µM (inactive)	> 100 µM (inactive)	> 100 µM (inactive)	> 100 µM (inactive)	> 100 µM (inactive)	> 100 µM (inactive)
Cc1ccnc(NS(=O)(=O)c2ccc(NC(=O)c3ccc4nc5ccccc5c(Nc5ccc(S(=O)(=O)Nc6nccc(C)n6)cc5)c4c3)cc2)n1	52.4 µM (inactive)	52 µM (inactive)	66.1 µM (inactive)	37.2 µM (inactive)	> 100 µM (inactive)	21.9 µM (inactive)	50.4 µM (inactive)	94.4 µM (inactive)	> 100 µM (inactive)	45.3 µM (inactive)	> 100 µM (inactive)	51.1 µM (inactive)	62.4 µM (inactive)	> 100 µM (inactive)	40.7 µM (inactive)	41.4 µM (inactive)	> 100 µM (inactive)	> 100 µM (inactive)	> 100 µM (inactive)	28.3 µM (inactive)
COc1cc2c3c(cc(Cl)nc3c1OC)C(O)(CC(=O)c1ccccc1)C(=O)N2 (stereo not given)	2.35 µM (inactive)	0.995 µM (active)	1.93 µM (inactive)	18.5 µM (inactive)	13.3 µM (inactive)	4.65 µM (inactive)	14.8 µM (inactive)	1.49 µM (inactive)	24.8 µM (inactive)	7.01 µM (inactive)	8.15 µM (inactive)	17.7 µM (inactive)	1.93 µM (inactive)	21.5 µM (inactive)	13.8 µM (inactive)	4.79 µM (inactive)	17.5 µM (inactive)	17 µM (inactive)	19.1 µM (inactive)	4.94 µM (inactive)
COc1ccc(Nc2n[nH]c(NS(=O)(=O)c3cc(C)c(Cl)cc3S)n2)cc1	> 100 µM (inactive)	> 100 µM (inactive)	> 100 µM (inactive)	> 100 µM (inactive)	> 100 µM (inactive)	> 100 µM (inactive)	> 100 µM (inactive)	> 100 µM (inactive)	> 100 µM (inactive)	> 100 µM (inactive)	> 100 µM (inactive)	> 100 µM (inactive)	> 100 µM (inactive)	> 100 µM (inactive)	> 100 µM (inactive)	> 100 µM (inactive)	> 100 µM (inactive)	> 100 µM (inactive)	> 100 µM (inactive)	> 100 µM (inactive)
CN(C)Cc1cc(C(=O)/C=C/c2ccc(Br)cc2)cc(CN(C)C)c1O	7.46 µM (inactive)	14.3 µM (inactive)	14.3 µM (inactive)	13.7 µM (inactive)	1.82 µM (inactive)	5.85 µM (inactive)	11.3 µM (inactive)	3.4 µM (inactive)	16.7 µM (inactive)	1.99 µM (inactive)	6.53 µM (inactive)	12.8 µM (inactive)	2.22 µM (inactive)	17.3 µM (inactive)	3.21 µM (inactive)	2.43 µM (inactive)	2.28 µM (inactive)	15.7 µM (inactive)	19.3 µM (inactive)	18.2 µM (inactive)
